Patent US10799595B2, “Pyrrolobenzodiazepine conjugates” (priority 2016, dated 2020)

Tests used:
[1] = tested on: DU145; experiment: In vitro testing of compound 10, CellTiter-Glo viability, +/- β-glucuronidase, 72 hour assay; format: cell-based; settings: Homo sapiens, DU-145, 72 h
Experimental: DU145 (2000/well, 72 hour assay) and MDA-MB-361 (5000/well, 144 hour assay) cells were plated in culture medium to tissue culture-treated 96-well plates at a volume of 80 μL per well and allowed to adhere overnight. For warhead dilutions, first a 60× concentration of each dose to be tested was prepared by diluting the test articles in DMSO. The 60× dilutions of warhead were then further diluted to a 5× concentration in either cell culture medium alone or cell culture medium containing 5× β-glucuronidase enzyme (Sigma Cat # G0799-25KU). […] DMSO alone diluted to the culture medium was used as the controls. The treated cells were cultured at 37° C./5% CO2 for 72 to 144 hours (depending on established growth kinetics of each particular cell line). At the end of the assay, CellTiter-Glo® (CTG) Luminescent Viability Assay (Promega) was used to determine relative cytotoxicity. 100 μL of CTG reagent was added to each well, and plates were incubated for 10 minutes at room temperature with gentle shaking, absorbance of each sample was read at 560 nm using an EnVision luminometer (Perkin Elmer). The percent cell viability was calculated by the following formula: (average luminescence of treated samples/average luminescence of control samples)×100.
(§1) IC50 values were determined using logistic non-linear regression analysis with GraphPad Prism software.

[2] = tested on: MDA-MB-361; experiment: In vitro testing of compound 10, CellTiter-Glo viability, +/- β-glucuronidase, 144 hour assay; format: cell-based; settings: Homo sapiens, MDA-MB-361, 144 h
Experimental: DU145 (2000/well, 72 hour assay) and MDA-MB-361 (5000/well, 144 hour assay) cells were plated in culture medium to tissue culture-treated 96-well plates at a volume of 80 μL per well and allowed to adhere overnight. For warhead dilutions, first a 60× concentration of each dose to be tested was prepared by diluting the test articles in DMSO. The 60× dilutions of warhead were then further diluted to a 5× concentration in either cell culture medium alone or cell culture medium containing 5× β-glucuronidase enzyme (Sigma Cat # G0799-25KU). 20 μL of cell culture medium containing test article+/−enzyme was added to cells in triplicate wells, and the final dose curve ranged from 6.4 nM to 61 pM in a stepwise 1:4 serial dilution series. DMSO alone diluted to the culture medium was used as the controls. […] 100 μL of CTG reagent was added to each well, and plates were incubated for 10 minutes at room temperature with gentle shaking, absorbance of each sample was read at 560 nm using an EnVision luminometer (Perkin Elmer). The percent cell viability was calculated by the following formula: (average luminescence of treated samples/average luminescence of control samples)×100.
as §1

[3] = tested on: human tumour cell lines; settings: cited from earlier work; for activity against a range of human tumour cell lines: quoted from REF 2014 impact study
[4] = tested on: human tumour xenograft models; settings: quoted from REF 2014 impact study; cited from earlier work

SMILES: C=C1C[C@H]2[C@H](O)N(C(=O)OCc3ccc(NC(=O)[C@H](C)NC(=O)[C@@H](NC(=O)CCOCCOCCOCCOCCOCCOCCOCCOCCNC(=O)CCN4C(=O)C=CC4=O)C(C)C)cc3)c3cc(OCCCOc4cc5c(cc4OC)C(=O)N4CC(=C)C[C@H]4[C@H](O)N5C(=O)OCc4ccc(O[C@@H]5O[C@H](C(=O)O)[C@@H](O)[C@H](O)[C@H]5O)c([N+](=O)[O-])c4)c(OC)cc3C(=O)N2C1 [Compound 10]
- IC50 ([1]; No glucuronidase): 6.84 µM
- IC50 ([1]; With glucuronidase): 0.201 µM
- IC50 ([2]; No glucuronidase): 0.778 µM
- IC50 ([2]; With glucuronidase): 0.032 µM

SMILES: C=C1C[C@H]2C=Nc3cc(OCCCOc4cc5c(cc4OC)C(=O)N4CC(=C)C[C@H]4C=N5)c(OC)cc3C(=O)N2C1 [SG2000]
- times less cytotoxic than SG2057 ([3]; see Hartley et al 2012): at least 10 times

SMILES: C=C1C[C@H]2C=Nc3cc(OCCCCCOc4cc5c(cc4OC)C(=O)N4CC(=C)C[C@H]4C=N5)c(OC)cc3C(=O)N2C1 [SG2057]
- activity in human tumour xenograft models [4]: curative activity
- activity against a range of human tumour cell lines [3]: picomolar/sub-picomolar activity

SMILES: COc1ccc(C2=CN3C(=O)c4cc(OC)c(OCCCOc5cc6c(cc5OC)C(=O)N5C=C(c7ccc(OC)cc7)C[C@H]5C=N6)cc4N=C[C@@H]3C2)cc1 [SG2202]
- activity in human tumour xenograft models [4]: curative activity
- activity against a range of human tumour cell lines [3]: picomolar/sub-picomolar activity
